This note sets out measurements from patent US11419902B2, “Compositions comprising bacterial strains” (4D Pharma Research Limited, priority 2018, dated 2022).

For one assay, the system named is β3Tubulin. The assay is described as follows: β3Tubulin expression in SH-SY5Y cells (immunostaining, immunoblotting). Format: cell-based. To be noted: undifferentiated SH-SY5Y cells, 10% bacterial supernatant 24 h, vs untreated cells. The procedure:
Cells were seeded onto 8-well chamber slides (Marienfeld Laboratory Glassware) at 5×10^4 cells/well overnight and were treated with 10% bacterial supernatant for 24 h. For differentiation, cells were treated with 10 nM RA for 5 days before treating with cell-free bacterial supernatant for 24 h.
Afterwards, the cells were fixed with 4% paraformaldehyde in PBS for 20 minutes at room temperature (RT). Fixed cells were washed with PBS, and permeabilized with 1% Triton X-100 in PBS for 10 minutes. After washing with PBS, the slides were incubated with blocking buffer (4% BSA/PBS) for 1 h at RT before adding anti-MAP2 antibody or β3-tubulin (sc-74421 and sc-80005 respectively, Santa Cruz Biotechnology Inc) diluted in 1% BSA/PBS for 12 h at 4° C. They were then washed twice with PBS, followed by incubation with Alexa Flour 488 conjugated anti-mouse (Molecular Probes Inc) and Alexa Flour 594 conjugated Phalloidin (ab176757, Abcam) for 1 h at RT. […]
(§1) SH-SY5Y cells cultured under the indicated conditions described above, treated with MRx0029 for 24 h and then lysed in RIPA buffer containing cocktail of protease inhibitors (Roche Diagnostics, UK). […] The blots were then incubated with the appropriate horseradish peroxidase (HRP)-conjugated secondary antibody, and proteins were detected by chemiluminescence detection kit (Pierce Biotechnology, Rockford, Ill.). […]

Assay [1] relates to MAP2. The assay is described as follows: MAP2 expression in SH-SY5Y cells (qPCR, immunostaining, immunoblotting). The format is cell-based. To be noted: undifferentiated SH-SY5Y cells, 10% bacterial supernatant, vs untreated cells. As for the experimental part: SH-SY5Y were plated in 10 cm petri dishes a density of 2×10^6 cells. After 24 h cells were treated in differentiation medium (growth medium containing 1% FBS without RA) with 10% bacteria supernatants or YCFA+, 10 uM RA, 200 uM hexanoic acid or 200 uM valproic acid, for 17 hrs. There after representative images were taken using phase contrast EVOS XL core microscope at 40×10.65 magnification. Cells were collected, and total RNA was isolated according to RNeasy mini kit protocol (Qiagen). cDNAs were made using the high capacity cDNA reverse transcription kit (Applied Biosystems). Gene expression was measured using qPCR. GAPDH was used as internal control. Fold change was calculated according to the 2^(−ΔΔct) method.
Cells were seeded onto 8-well chamber slides (Marienfeld Laboratory Glassware) at 5×10^4 cells/well overnight and were treated with 10% bacterial supernatant for 24 h. […]
as §1

The subject of the next assay is 451Lu melanoma cell line. The assay is described as follows: Clonogenic survival of 451Lu cell line. Format: cell-based. Conditions: relative to both negative controls (cell line only, and YCFA+ +DMSO). The procedure:
Cells were trypsinized and 200 cells/well were seeded in 12-well plates. After 48 h cells were treated with the appropriate drugs in absence (YCFA+) or presence of 10% bacterial supernatant and were re-fed every three days. On day 21 after seeding, cells were fixed in ice-cold methanol and stained with Crystal Violet blue. […] were counted and survival fraction was calculated as number of colonies divided by the number of plated cells (plating efficiency) of treated divided by the plating efficiency of control.
The effects of the following treatments were assessed on the 451Lu melanoma cell line (V600E oncogenic mutation in BRAF): (1) MRx0029; (2) Vemurafenib (VEMU) in YFCA+ medium; (3) VEMU and MRx0029; (4) Azacytidine-C (Aza-c) in YFCA+ medium; (5) Aza-c and MRx0029; (6) VEMU, Aza-c and MRx0029.

Assay [2] has as its system MAP2. The assay is described as follows: MAP2 expression in SH-SY5Y cells (qPCR, Example 22). To be noted: 10% bacterial supernatants 17 h, vs negative control and media control. Format: cell-based. As for the experimental part: SH-SY5Y were plated in 6 well plates at a density of 0.5×10^6 cells. After 24 h, cells were treated in differentiation medium (growth medium containing 1% FBS) with 10% bacterial supernatants or YCFA+ for 17 h. Cells were collected, and total RNA was isolated according to the RNeasy mini kit protocol (Qiagen). cDNA was made using the High Capacity cDNA reverse transcription kit (Applied Biosystems). Gene expression was measured by qPCR. GAPDH was used as internal control. Fold change was calculated according to the 2^(−ΔΔct) method. Primer sets used are listed as SEQ ID NOs: 2, 3, 4 and 5.

The next assay concerns NF-κB-Ap1 promoter. The assay is described as follows: NF-κB promoter activation in HEK-TLR4 reporter cells (SEAP). The format is cell-based, human. To be noted: 10% supernatant 22 h, on its own (without LPS). As for the experimental part: HEK293-Blue reporter cells stably expressing human TLR4 (HEK-TLR4), were cultured according to the manufacturer's instructions. Briefly, HEK-TLR4 cells were maintained in DMEM 4.5 g/L D-glucose supplemented with 10% (v/v) heat-inactivated FBS, 4 mM L-Glutamine, 100 U/ml penicillin, 100 μg/ml streptomycin, 100 μg/ml normocin, 1×HEK-Blue selection media.
Briefly, cells were washed with PBS, dissociated in PBS and collected in growth media. Cells were plated in 96-well plates at a density of 25,000 cells/well. To evaluate the effect of bacteria strains on LPS inducing NF-κB promoter activation, cells were treated with 10 ng/ml LPS in presence or absence of 10% supernatants (isolated as described above) and incubated in a CO2 incubator. Treatments proceeded for 22 h at 37° C. and 5% CO2, after which the detection of Secreted Embryonic Alkaline Phosphatase (SEAP) activity from cell culture supernatant was performed using QUANTI-blue solution according to manufacturer's instructions. Briefly, 20 μl of cell-free supernatant was collected and analysed for the presence of SEAP by mixing with 200 μl of sterile-filtered QUANTI-Blue detection media. After 2 h incubation at 37° C., optical density was measured at 655 nm on a microplate reader (iMark microplate, Bio-Rad).

Megasphaera massiliensis MRx0029: the “expression of β3Tubulin” value in the assay with β3Tubulin was “increases the expression of β3Tubulin”. For the same substance, in the assay on MAP2 [1], the “expression of MAP2” value is “significantly increased the expression of MAP2”. Moreover, in the assay on 451Lu melanoma cell line, the clonogenic survival result was “decreased clonogenic survival”. For the same substance, the MAP2 expression entry in the assay on MAP2 [2] is reported as “statistically-significant increase of MAP2 expression”. Further, the NF-κB-Ap1 promoter activation entry with NF-κB-Ap1 promoter was “induced NF-κB-Ap1 promoter activation”.
